Measured values published in patent US20240285661A1, “Inhibitor of Invasion of Virus to Cell” (TOYO SUGAR REFINING CO., LTD., priority 2021, published 2024).

Assays:
pseudo SARS-CoV-2 [1] = test: microbe, parasite or virus in culture; type: cell-based; conditions: Severe acute respiratory syndrome coronavirus 2, Caco-2 cells, read-out: Inhibition rate of invasion to cell (%)
pseudo SARS-CoV-2 [2] = test: microbe, parasite or virus in culture; type: cell-based; conditions: Severe acute respiratory syndrome coronavirus 2, A549, concentration 20 nM, read-out: Inhibition rate of invasion to cell (%)

N=C(N)c1ccc2cc(OC(=O)c3ccc(N=C(N)N)cc3)ccc2c1 [Nafamostat]
inhibition at 0.00016 µM (pseudo SARS-CoV-2 [1]; concentration 0.16 nM): 40.4%
inhibition at 0.0008 µM (pseudo SARS-CoV-2 [1]; concentration 0.80 nM): 48.9%
inhibition at 0.1 µM (pseudo SARS-CoV-2 [1]; concentration 100 nM): 76.1%
inhibition at 0.02 µM (pseudo SARS-CoV-2 [2]): 49%
